What was measured:
Assay type in all cases: functional
[1] = Cytotoxicity against human DU145 cells assessed as cell growth at 10^-8 M after 48 hrs by SRB assay; conditions: DU-145, 48 h, read-out: Activity
[2] = Cytotoxicity against human COLO205 cells assessed as cell growth at 10^-5 M after 48 hrs by SRB assay; conditions: COLO 205, 48 h, read-out: Activity
[3] = Cytotoxicity against human HCC2998 cells assessed as cell growth at 10^-7 M after 48 hrs by SRB assay; conditions: HCC 2998, 48 h, read-out: Activity
[4] = Cytotoxicity against human HL-60(TB) cells assessed as cell growth at 10^-5 M after 48 hrs by SRB assay; conditions: HL-60, 48 h, read-out: Activity
[5] = Cytotoxicity against human DU145 cells assessed as cell growth at 10^-6 M after 48 hrs by SRB assay; conditions: DU-145, 48 h, read-out: Activity
U-251 [6] = test: Cytotoxicity against human U251 cells assessed as cell growth at 10^-8 M after 48 hrs by SRB assay; conditions: U-251, 48 h, read-out: Activity
A498 = test: Cytotoxicity against human A498 cells assessed as cell growth at 10^-6 M after 48 hrs by SRB assay; conditions: A498, 48 h, read-out: Activity
MDA-MB-468 = test: Cytotoxicity against human MDA-MB-468 cells assessed as cell growth at 10^-8 M after 48 hrs by SRB assay; conditions: MDA-MB-468, 48 h, read-out: Activity
NCI-H460 = test: Cytotoxicity against human NCI-H460 cells assessed as cell growth at 10^-7 M after 48 hrs by SRB assay; conditions: NCI-H460, 48 h, read-out: Activity
EKVX = test: Cytotoxicity against human EKVX cells assessed as cell growth at 10^-7 M after 48 hrs by SRB assay; conditions: read-out: Activity
[7] = Cytotoxicity against human OVCAR5 cells assessed as cell growth at 10^-8 M after 48 hrs by SRB assay; conditions: OVCAR-5, 48 h, read-out: Activity
[8] = Cytotoxicity against human Caki1 cells assessed as cell growth at 10^-4 M after 48 hrs by SRB assay; conditions: CAKI-1, 48 h, read-out: Activity
U-251 [9] = test: Cytotoxicity against human U251 cells assessed as cell growth at 10^-5 M after 48 hrs by SRB assay; conditions: U-251, 48 h, read-out: Activity
ACHN [10] = test: Cytotoxicity against human ACHN cells assessed as cell growth at 10^-4 M after 48 hrs by SRB assay; conditions: read-out: Activity
[11] = Cytotoxicity against human SNB19 cells assessed as cell growth at 10^-4 M after 48 hrs by SRB assay; conditions: SNB-19, 48 h, read-out: Activity
K562 = test: Cytotoxicity against human K562 cells assessed as cell growth at 10^-4 M after 48 hrs by SRB assay; conditions: K562, 48 h, read-out: Activity
[12] = Cytotoxicity against human RXF393 cells assessed as cell growth at 10^-7 M after 48 hrs by SRB assay; conditions: RXF 393, 48 h, read-out: Activity
HT-29 = test: Cytotoxicity against human HT-29 cells assessed as cell growth at 10^-4 M after 48 hrs by SRB assay; conditions: HT-29, 48 h, read-out: Activity
[13] = Cytotoxicity against human SNB19 cells assessed as cell growth at 10^-5 M after 48 hrs by SRB assay; conditions: SNB-19, 48 h, read-out: Activity
[14] = Cytotoxicity against human LOXIMVI cells assessed as cell growth at 10^-7 M after 48 hrs by SRB assay; conditions: LOX IMVI, read-out: Activity
SK-MEL-28 [15] = test: Cytotoxicity against human SK-MEL-28 cells assessed as cell growth at 10^-7 M after 48 hrs by SRB assay; conditions: SK-MEL-28, 48 h, read-out: Activity
ACHN [16] = test: Cytotoxicity against human ACHN cells assessed as cell growth at 0.5 uM after 48 hrs by SRB assay; conditions: read-out: Activity
[17] = Cytotoxicity against human SF295 cells assessed as cell growth at 50 uM after 48 hrs by SRB assay; conditions: SF-295, 48 h, read-out: Activity
MCF7 [18] = test: Cytotoxicity against human MCF7 cells assessed as cell growth at 50 uM after 48 hrs by SRB assay; conditions: MCF7, 48 h, read-out: Activity
[19] = Cytotoxicity against human HOP92 cells assessed as cell growth at 5 nM after 48 hrs by SRB assay; conditions: HOP-92, 48 h, read-out: Activity
MCF7 [20] = test: Cytotoxicity against human MCF7 cells assessed as cell growth at 50 nM after 48 hrs by SRB assay; conditions: MCF7, 48 h, read-out: Activity
KM12 = test: Cytotoxicity against human KM12 cells assessed as cell growth at 5 nM after 48 hrs by SRB assay; conditions: KM12, 48 h, read-out: Activity
[21] = Cytotoxicity against human UACC257 cells assessed as cell growth at 50 nM after 48 hrs by SRB assay; conditions: UACC-257, 48 h, read-out: Activity
[22] = Cytotoxicity against human IGROV1 cells assessed as cell growth at 0.5 uM after 48 hrs by SRB assay; conditions: IGROV-1, 48 h, read-out: Activity
786-0 [23] = test: Cytotoxicity against human 786-0 cells assessed as cell growth at 0.5 uM after 48 hrs by SRB assay; conditions: 786-0, 48 h, read-out: Activity
[24] = Cytotoxicity against human COLO205 cells assessed as cell growth at 50 nM after 48 hrs by SRB assay; conditions: COLO 205, 48 h, read-out: Activity
MCF7 [25] = test: Cytotoxicity against human MCF7 cells assessed as cell growth at 5 uM after 48 hrs by SRB assay; conditions: MCF7, 48 h, read-out: Activity
SK-MEL-28 [26] = test: Cytotoxicity against human SK-MEL-28 cells assessed as cell growth at 50 nM after 48 hrs by SRB assay; conditions: SK-MEL-28, 48 h, read-out: Activity
786-0 [27] = test: Cytotoxicity against human 786-0 cells assessed as cell growth at 50 nM after 48 hrs by SRB assay; conditions: 786-0, 48 h, read-out: Activity
[28] = Cytotoxicity against human OVCAR5 cells assessed as cell growth at 50 nM after 48 hrs by SRB assay; conditions: OVCAR-5, 48 h, read-out: Activity
SK-MEL-5 [29] = test: Cytotoxicity against human SK-MEL-5 cells assessed as cell growth at 5 uM after 48 hrs by SRB assay; conditions: SK-MEL-5, 48 h, read-out: Activity
NCI-H23 [30] = test: Cytotoxicity against human NCI-H23 cells assessed as cell growth at 0.5 uM after 48 hrs by SRB assay; conditions: NCI-H23, 48 h, read-out: Activity
[31] = Cytotoxicity against human OVCAR4 cells assessed as cell growth at 0.5 uM after 48 hrs by SRB assay; conditions: OVCAR-4, 48 h, read-out: Activity
SK-MEL-5 [32] = test: Cytotoxicity against human SK-MEL-5 cells assessed as cell growth at 0.5 uM after 48 hrs by SRB assay; conditions: SK-MEL-5, 48 h, read-out: Activity
[33] = Cytotoxicity against human MOLT4 cells assessed as cell growth at 5 nM after 48 hrs by SRB assay; conditions: MOLT-4, 48 h, read-out: Activity
[34] = Cytotoxicity against human DU145 cells assessed as cell growth at 5 uM after 48 hrs by SRB assay; conditions: DU-145, 48 h, read-out: Activity
NCI-H23 [35] = test: Cytotoxicity against human NCI-H23 cells assessed as cell growth at 5 uM after 48 hrs by SRB assay; conditions: NCI-H23, 48 h, read-out: Activity

C/C(=C(/c1ccc(O)cc1)c1ccc(OCCN2CCCC2)cc1)c1ccccc1
growth at 0.01 µM [1]: 98% | growth at 10 µM [2]: -79% | growth at 0.1 µM [3]: 92% | growth at 10 µM [4]: -39% | growth at 1 µM [5]: 94% | growth at 0.01 µM (U-251 [6]): 103% | growth at 1 µM (A498): 66% | growth at 0.01 µM (MDA-MB-468): 99% | growth at 0.1 µM (NCI-H460): 106% | growth at 0.1 µM (EKVX): 93% | growth at 0.01 µM [7]: 88% | growth at 100 µM [8]: -100% | growth at 10 µM (U-251 [9]): -33% | growth at 100 µM (ACHN [10]): -91% | growth at 100 µM [11]: -74% | growth at 100 µM (K562): -70% | growth at 0.1 µM [12]: 105% | growth at 100 µM (HT-29): -91% | growth at 10 µM [13]: -10% | growth at 0.1 µM [14]: 95% | growth at 0.1 µM (SK-MEL-28 [15]): 97%

CCCCCCCCCC(=O)Oc1ccc(/C(=C(/C)c2ccccc2)c2ccc(OCCN3CCCC3)cc2)cc1
growth at 0.5 µM (ACHN [16]): 88% | growth at 50 µM [17]: -94% | growth at 50 µM (MCF7 [18]): -79% | growth at 0.005 µM [19]: 86% | growth at 0.05 µM (MCF7 [20]): 41% | growth at 0.005 µM (KM12): 101% | growth at 0.05 µM [21]: 102% | growth at 0.5 µM [22]: 72% | growth at 0.5 µM (786-0 [23]): 79% | growth at 0.05 µM [24]: 96% | growth at 5 µM (MCF7 [25]): 36% | growth at 0.05 µM (SK-MEL-28 [26]): 100% | growth at 0.05 µM (786-0 [27]): 94% | growth at 0.05 µM [28]: 94% | growth at 5 µM (SK-MEL-5 [29]): 90% | growth at 0.5 µM (NCI-H23 [30]): 71% | growth at 0.5 µM [31]: 68% | growth at 0.5 µM (SK-MEL-5 [32]): 62% | growth at 0.005 µM [33]: 97% | growth at 5 µM [34]: 88% | growth at 5 µM (NCI-H23 [35]): 80%
